Holding throughout (assay): biochemical
Design in all cases: KINOMEscan competition binding panel (Eurofins DiscoverX), single concentration, percent inhibition
What all share (conditions): read-out: 15 at 1 µM % inhibition

For one test, the target named is AURKA (Homo sapiens, UniProt O14965). A digest of the protocol:
(§1)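 KINOMEscan binding panel of >400 kinases, run by Eurofins DiscoverX, with compounds tested at a single concentration of 1 µM.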

The target in the next test is T1, BIKE (Homo sapiens, UniProt Q9NSY1).
T1 construct: gene BMP2K
In a few lines:
as §1

The target in the next test is BRAF (Homo sapiens, UniProt P15056). In a few lines: as §1
Another test deals with CAMK2D (Homo sapiens, UniProt Q13557). A digest of the protocol:
as §1

A further test addresses CLK2 (Homo sapiens, UniProt P49760). A digest of the protocol: as §1
Another test addresses CLK3 (Homo sapiens, UniProt P49761). A digest of the protocol: as §1
The next test addresses CSF1R-autoinhibited (Homo sapiens, UniProt P07333). A digest of the protocol:
as §1

In a further test the target is CSK (Homo sapiens, UniProt P41240). In a few lines: as §1
In the next test the target is DAPK3 (Homo sapiens, UniProt O43293). In a few lines:
as §1

The target of a further test is FRK (Homo sapiens, UniProt P42685). A digest of the protocol:
as §1

Another test addresses T2, ICK (Homo sapiens, UniProt Q9UPZ9).
T2 construct: gene CILK1
A digest of the protocol: as §1

In test [1] the target is T3, JAK1(JH2domain-pseudokinase) (Homo sapiens, UniProt P23458).
T3 construct: JH2domain-pseudokinase
A digest of the protocol: as §1

The target of a further test is T4, JNK2 (Homo sapiens, UniProt P45984).
T4 construct: gene MAPK9
In a few lines: as §1

Another test addresses KIT(V559D,T670I) (Homo sapiens, UniProt P10721, T670I/V559D). In a few lines:
as §1

The next test has as its target MAP4K4 (Homo sapiens, UniProt O95819). A digest of the protocol:
as §1

For another test, the target named is MET(M1250T) (Homo sapiens, UniProt P08581, M1250T). A digest of the protocol:
as §1

The next test deals with MYO3A (Homo sapiens, UniProt Q8NEV4). In a few lines:
as §1

The target in a further test is NEK9 (Homo sapiens, UniProt Q8TD19). In a few lines: as §1
For the next test, the target named is PAK4 (Homo sapiens, UniProt O96013). In a few lines: as §1
Another test addresses ROCK1 (Homo sapiens, UniProt Q13464). A digest of the protocol:
as §1

Test [2] concerns the target T5, RPS6KA5(Kin.Dom.2-C-terminal) (Homo sapiens, UniProt O75582).
T5 construct: Kin.Dom.2-C-terminal
In a few lines:
as §1

A further test deals with TRPM6 (Homo sapiens, UniProt Q9BX84). A digest of the protocol:
as §1

Another test has as its target T6, YANK1 (Homo sapiens, UniProt Q8WU08).
T6 construct: gene STK32A
A digest of the protocol:
as §1

Another test addresses T7, p38-delta (Homo sapiens, UniProt O15264).
T7 construct: gene MAPK13
A digest of the protocol:
as §1

The structures appear in SMILES notation.

Sequence of KIT(V559D,T670I) (P10721 whole entry V559D/T670I): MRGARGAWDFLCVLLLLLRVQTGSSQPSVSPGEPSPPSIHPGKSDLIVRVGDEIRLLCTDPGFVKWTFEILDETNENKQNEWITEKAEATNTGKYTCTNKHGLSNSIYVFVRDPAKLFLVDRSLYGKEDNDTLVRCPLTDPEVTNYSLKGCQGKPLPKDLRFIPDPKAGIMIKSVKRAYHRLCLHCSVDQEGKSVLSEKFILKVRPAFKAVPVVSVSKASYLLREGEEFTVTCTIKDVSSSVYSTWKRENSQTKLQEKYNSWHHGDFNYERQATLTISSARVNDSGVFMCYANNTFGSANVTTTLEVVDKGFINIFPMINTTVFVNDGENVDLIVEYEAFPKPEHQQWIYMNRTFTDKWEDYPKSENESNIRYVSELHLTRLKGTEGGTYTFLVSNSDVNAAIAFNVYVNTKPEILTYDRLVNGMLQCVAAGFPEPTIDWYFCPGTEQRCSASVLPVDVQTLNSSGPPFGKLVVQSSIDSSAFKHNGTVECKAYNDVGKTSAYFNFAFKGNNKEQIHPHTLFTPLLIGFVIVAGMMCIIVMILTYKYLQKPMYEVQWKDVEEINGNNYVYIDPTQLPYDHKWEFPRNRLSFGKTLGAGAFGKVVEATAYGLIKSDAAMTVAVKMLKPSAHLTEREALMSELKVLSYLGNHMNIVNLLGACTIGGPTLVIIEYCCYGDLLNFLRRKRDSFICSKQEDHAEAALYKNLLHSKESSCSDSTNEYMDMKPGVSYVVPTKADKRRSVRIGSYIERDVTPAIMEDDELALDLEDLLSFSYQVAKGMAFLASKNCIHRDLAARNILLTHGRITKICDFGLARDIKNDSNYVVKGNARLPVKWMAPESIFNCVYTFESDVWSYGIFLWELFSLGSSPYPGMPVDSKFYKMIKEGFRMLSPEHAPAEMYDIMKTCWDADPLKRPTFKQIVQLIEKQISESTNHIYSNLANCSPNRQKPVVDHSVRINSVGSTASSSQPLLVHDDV
T1 sequence (Q9NSY1 whole entry): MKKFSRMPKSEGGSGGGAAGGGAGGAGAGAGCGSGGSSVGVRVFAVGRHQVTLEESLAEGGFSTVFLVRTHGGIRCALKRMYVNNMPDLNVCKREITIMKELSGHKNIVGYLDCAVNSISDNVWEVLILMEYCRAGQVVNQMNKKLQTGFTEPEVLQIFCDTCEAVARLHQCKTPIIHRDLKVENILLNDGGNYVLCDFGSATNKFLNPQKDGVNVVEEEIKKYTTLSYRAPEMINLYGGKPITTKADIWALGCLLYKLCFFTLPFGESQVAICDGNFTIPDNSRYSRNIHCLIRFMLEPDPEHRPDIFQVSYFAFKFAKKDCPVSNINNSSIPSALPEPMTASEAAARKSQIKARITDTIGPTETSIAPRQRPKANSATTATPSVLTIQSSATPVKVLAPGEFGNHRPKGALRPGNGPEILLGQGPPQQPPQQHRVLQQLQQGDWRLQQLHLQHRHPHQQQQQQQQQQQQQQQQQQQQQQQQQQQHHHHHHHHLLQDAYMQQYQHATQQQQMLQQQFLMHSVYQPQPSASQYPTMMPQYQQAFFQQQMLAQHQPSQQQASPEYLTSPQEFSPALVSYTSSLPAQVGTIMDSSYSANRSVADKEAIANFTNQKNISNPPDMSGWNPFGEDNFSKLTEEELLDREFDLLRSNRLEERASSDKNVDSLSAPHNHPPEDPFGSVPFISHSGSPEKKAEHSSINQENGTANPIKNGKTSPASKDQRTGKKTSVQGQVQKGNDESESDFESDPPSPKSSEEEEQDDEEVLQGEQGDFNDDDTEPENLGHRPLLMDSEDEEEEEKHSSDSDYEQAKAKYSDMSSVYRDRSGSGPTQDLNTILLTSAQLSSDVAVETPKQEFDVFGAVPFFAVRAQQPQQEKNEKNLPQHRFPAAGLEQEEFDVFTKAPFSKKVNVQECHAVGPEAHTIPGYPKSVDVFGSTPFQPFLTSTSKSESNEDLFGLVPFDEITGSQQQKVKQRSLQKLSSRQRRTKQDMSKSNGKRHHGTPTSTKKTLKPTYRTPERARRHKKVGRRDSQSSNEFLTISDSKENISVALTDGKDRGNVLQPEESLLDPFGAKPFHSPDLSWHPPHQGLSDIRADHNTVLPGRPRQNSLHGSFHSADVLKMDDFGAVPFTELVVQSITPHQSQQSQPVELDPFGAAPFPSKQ
Sequence of MYO3A (Q8NEV4 whole entry): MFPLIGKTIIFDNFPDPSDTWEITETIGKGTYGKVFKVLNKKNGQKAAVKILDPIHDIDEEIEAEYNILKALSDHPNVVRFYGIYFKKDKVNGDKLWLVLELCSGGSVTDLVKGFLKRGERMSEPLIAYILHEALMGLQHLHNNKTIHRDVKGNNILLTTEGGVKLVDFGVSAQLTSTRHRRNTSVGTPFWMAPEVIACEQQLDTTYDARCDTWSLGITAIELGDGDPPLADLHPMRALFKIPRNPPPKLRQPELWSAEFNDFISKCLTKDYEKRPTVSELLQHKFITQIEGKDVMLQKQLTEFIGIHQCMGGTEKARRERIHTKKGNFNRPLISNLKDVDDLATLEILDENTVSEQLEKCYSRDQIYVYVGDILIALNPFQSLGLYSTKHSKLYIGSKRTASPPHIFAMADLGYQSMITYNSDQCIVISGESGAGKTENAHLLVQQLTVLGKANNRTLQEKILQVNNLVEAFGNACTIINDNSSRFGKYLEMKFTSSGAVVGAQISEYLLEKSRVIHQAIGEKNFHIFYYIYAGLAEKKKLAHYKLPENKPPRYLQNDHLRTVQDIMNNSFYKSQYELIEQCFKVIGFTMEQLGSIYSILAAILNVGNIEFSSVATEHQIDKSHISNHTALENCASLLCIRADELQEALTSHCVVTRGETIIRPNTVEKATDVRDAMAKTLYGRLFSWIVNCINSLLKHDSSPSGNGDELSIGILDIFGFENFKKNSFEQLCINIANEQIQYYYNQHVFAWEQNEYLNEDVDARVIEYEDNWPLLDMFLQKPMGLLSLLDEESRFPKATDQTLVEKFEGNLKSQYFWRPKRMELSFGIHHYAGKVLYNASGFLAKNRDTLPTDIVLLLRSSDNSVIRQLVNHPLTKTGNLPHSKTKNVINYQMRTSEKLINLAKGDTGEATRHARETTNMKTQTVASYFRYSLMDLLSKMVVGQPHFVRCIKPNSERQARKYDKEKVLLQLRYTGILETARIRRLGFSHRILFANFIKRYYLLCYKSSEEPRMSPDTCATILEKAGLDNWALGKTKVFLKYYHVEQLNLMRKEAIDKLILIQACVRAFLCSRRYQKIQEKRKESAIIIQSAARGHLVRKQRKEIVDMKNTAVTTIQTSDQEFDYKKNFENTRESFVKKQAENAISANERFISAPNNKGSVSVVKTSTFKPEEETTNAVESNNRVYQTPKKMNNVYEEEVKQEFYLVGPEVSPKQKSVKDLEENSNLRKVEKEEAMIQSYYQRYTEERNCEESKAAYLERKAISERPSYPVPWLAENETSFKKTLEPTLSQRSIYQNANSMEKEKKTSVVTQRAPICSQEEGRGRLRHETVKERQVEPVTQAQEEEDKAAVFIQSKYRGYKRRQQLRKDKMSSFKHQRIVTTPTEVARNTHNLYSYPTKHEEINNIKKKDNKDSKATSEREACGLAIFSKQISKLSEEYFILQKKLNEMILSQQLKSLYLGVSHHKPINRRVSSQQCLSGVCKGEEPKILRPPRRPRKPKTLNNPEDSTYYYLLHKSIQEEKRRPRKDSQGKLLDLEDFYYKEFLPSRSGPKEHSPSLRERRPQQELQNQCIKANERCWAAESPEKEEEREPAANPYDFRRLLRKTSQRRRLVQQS
T4 sequence (P45984 whole entry): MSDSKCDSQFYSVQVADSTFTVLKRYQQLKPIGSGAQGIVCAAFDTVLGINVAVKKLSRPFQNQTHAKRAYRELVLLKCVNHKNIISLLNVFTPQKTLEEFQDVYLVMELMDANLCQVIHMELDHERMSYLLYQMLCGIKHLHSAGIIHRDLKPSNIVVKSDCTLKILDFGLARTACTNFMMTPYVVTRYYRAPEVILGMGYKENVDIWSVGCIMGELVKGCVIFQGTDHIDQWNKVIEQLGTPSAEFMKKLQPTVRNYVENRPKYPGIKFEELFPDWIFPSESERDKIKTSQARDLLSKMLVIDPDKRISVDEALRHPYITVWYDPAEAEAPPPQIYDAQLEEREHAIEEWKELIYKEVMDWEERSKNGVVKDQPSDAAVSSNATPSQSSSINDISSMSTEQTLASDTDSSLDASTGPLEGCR
T5 sequence (O75582 whole entry): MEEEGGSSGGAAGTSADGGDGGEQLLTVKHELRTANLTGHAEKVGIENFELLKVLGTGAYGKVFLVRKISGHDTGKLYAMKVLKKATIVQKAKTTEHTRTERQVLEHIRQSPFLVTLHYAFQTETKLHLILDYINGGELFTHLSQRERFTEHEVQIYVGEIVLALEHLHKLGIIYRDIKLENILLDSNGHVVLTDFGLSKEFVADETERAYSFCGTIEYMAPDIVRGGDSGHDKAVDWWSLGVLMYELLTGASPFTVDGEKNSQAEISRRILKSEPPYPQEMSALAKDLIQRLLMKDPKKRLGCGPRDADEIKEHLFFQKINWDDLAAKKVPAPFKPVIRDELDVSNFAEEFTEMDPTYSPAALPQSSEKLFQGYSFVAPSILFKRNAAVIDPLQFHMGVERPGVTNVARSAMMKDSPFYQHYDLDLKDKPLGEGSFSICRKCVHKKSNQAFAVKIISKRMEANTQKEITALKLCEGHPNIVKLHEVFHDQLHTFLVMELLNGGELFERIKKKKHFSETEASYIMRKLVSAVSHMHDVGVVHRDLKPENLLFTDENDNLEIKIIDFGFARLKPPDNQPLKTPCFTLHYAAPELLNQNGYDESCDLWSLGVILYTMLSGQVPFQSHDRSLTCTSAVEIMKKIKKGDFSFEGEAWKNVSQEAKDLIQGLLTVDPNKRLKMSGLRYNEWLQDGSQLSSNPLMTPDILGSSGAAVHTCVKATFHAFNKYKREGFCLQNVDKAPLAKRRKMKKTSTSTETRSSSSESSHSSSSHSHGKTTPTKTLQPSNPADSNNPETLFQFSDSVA

As for `CNS(=O)(=O)c1ccc(N(C)C)c(Nc2nc(C)nc3cc(OC)c(OC)cc23)c1` [compound 15, 3-((6,7-dimethoxy-2-methylquinazolin-4-yl)amino)-4-(dimethylamino)-N-methylbenzenesulfonamide], the inhibition at 1 µM was determined as 14% on AURKA; 0% at BIKE; 20% at BRAF; 0% on CAMK2D; 0% at CLK2; 0% at CLK3. Also, the inhibition at 1 µM at CSF1R-autoinhibited was found to be 32%; at CSK it was 2%; at DAPK3, 0%; at FRK, 0%; at ICK, 12%; in [1], 26%. In addition, the inhibition at 1 µM turned out to be 4% at JNK2; 0% at KIT(V559D,T670I); 9% at MAP4K4; 0% at MET(M1250T); 0% on MYO3A; 0% on NEK9. The inhibition at 1 µM on PAK4 was 0%; at ROCK1, 34%; in test [2] it was 8%; on TRPM6 it was 6%; on YANK1, 0%; on p38-delta, 17%.

For orientation: inhibition means the share of the control response that was lost under treatment.

For the origin of these results see PMC7180948, “New Insights into 4-Anilinoquinazolines as Inhibitors of Cardiac Troponin I–Interacting Kinase (TNNi3K)” (Molecules, 2020).
